Experimental data taken from patent US9738591B2, “Antimicrobial compounds” (priority 2009, dated 2017).
Converted amounts (≈) assume the structure as drawn. Read-outs that look alike come from different tables or passages of the source.

Key:
[1] = Storage stability of master stock solution; format: physicochemical; conditions: 10 mg/ml in 100% DMSO, foil-covered glass bottles, −20° C.; results not shown
Description: 10 mg/ml stock solution of TSB007 was prepared in 100% DMSO. Master stock solutions of TSB007 (10 mg/ml) were made by dissolving 20 mg dehydrated compound in 2 ml 100% DMSO. They were stored in foil-covered glass bottles at −20° C. Master stocks stored in this way retained full antimicrobial activity for a minimum period of 6 weeks (results not shown).

[2] = test system: Moraxella catarrhalis ATCC 25238; experiment: Disk diffusion; format: cell-based; conditions: 10 mg/ml, 20 μl, incubated in 5% CO2
[3] = test system: S. epidermidis ATCC 12228; experiment: MIC and MBC by broth microdilution; format: cell-based; conditions: Staphylococcus epidermidis, ATCC12228, CA-MHB, two independent replicates
E. coli NCTC 10418 = experiment: Broth microdilution MIC and MBC, expanded testing range; format: cell-based; conditions: Escherichia coli, NCTC10418; MHB, growth-method inoculum, range 1024 to 0.5 μg/ml
Description: (§1) The method used was based on CLSI protocols for broth microdilution testing of these species. As recommended by CLSI, inocula were prepared by direct colony suspension, and the media used were cation-adjusted Mueller Hinton broth (CA-MHB) for Staphylococcus spp. and CA-MHB containing 5% lysed horse blood (CA-MHB+LHB) for Streptococcus spp. Briefly, 24 h blood agar plate (BA) cultures of Staphylococcus aureus strains NCTC 6571, ATCC 29213, ATCC 33592 (MRSA) and NCTC 10442 (MRSA), Staphylococcus epidermidis ATCC 29971, Staphylococcus xylosus ATCC 29971, Streptococcus pneumoniae strains ATCC 49619 and ATCC 6305, and Streptococcus pyogenes strains NCTC 8191 and NCTC 8302 were used to prepare 0.5 McFarland suspensions in saline. Two 640 μg/ml working stocks of TSB007 were prepared from a fresh master stock, one in CA-MHB for testing against the Staphylococcus spp. and the other in CA-MHB+LHB for testing against Streptococcus spp. The working stocks were further diluted 1/10 in these broths for adding to microtitre trays to test MICs of 32, 16, 8, 4, 2, 1, 0.5, 0.25, 0.125 and 0.06 μg/ml.
(§2) The wells of two 96-well microtitre trays (one for Staphylococcus spp. and one for Streptococcus spp.) were filled with 100 μl of the appropriate broth, except for the first column. The last column, a sterility control containing no TSB007 or inoculum, was filled with an additional 100 μl broth. Then 100 μl of the 64 μg/ml TSB007 solution was added to the first two columns, the contents of column 2 was mixed, then 100 μl of this was used in two-fold serial dilutions along the rest of the tray except the last two columns. The final 100 μl was discarded. […] Finally, to the first 11 wells of one row per strain, 100 μl of a 10^−2 dilution (in the appropriate broth) of the 0.5 McFarland suspension was added. The microtitre trays were then incubated at 35° C. for 24 h before the MICs were read visually. Wells were further subcultured (10 μl drop onto BA then incubated at 35° C. for 24 h) and colonies subsequently counted to determine minimum bactericidal concentrations (MBCs). The concentration of the initial inoculum was confirmed on BA by counting colonies from 2×10 μl spots of 10^−5 dilutions of the 0.5 McFarland suspensions. Testing was performed on two separate occasions.
(§3) The method described above, with some modifications, was used to determine the MIC and MBC for S. aureus NCTC 6571 and E. coli NCTC 10418. Concentrations of the compound were previously too low to determine the MBC of this S. aureus strain. Modifications were the use of Mueller-Hinton broth (MHB) instead of CA-MHB, the preparation of bacterial inoculum by the growth method instead of direct colony suspension, and the use of more concentrated working stocks and test concentrations of TSB007. […]

S. aureus NCTC 6571 = experiment: as above; format: cell-based; conditions: Staphylococcus aureus, NCTC6571; MHB, growth-method inoculum, range 1024 to 0.5 μg/ml
Description: as §1, §2, §3

[4] = test system: S. aureus and S. epidermidis; experiment: MIC by broth microdilution; format: cell-based; conditions: CA-MHB, read-out: lowest MICs
Description: as §1, with “The working stocks were further diluted 1/10 in these broths for adding to microtitre trays to test MICs of 32, 16, 8, 4, 2, 1, 0.5, 0.25, 0.125 and 0.06 μg/ml.” left out
The wells of two 96-well microtitre trays (one for Staphylococcus spp. and one for Streptococcus spp.) were filled with 100 μl of the appropriate broth, except for the first column. […] The microtitre trays were then incubated at 35° C. for 24 h before the MICs were read visually. Wells were further subcultured (10 μl drop onto BA then incubated at 35° C. for 24 h) and colonies subsequently counted to determine minimum bactericidal concentrations (MBCs). […]

[5] = test system: Aeromonas hydrophila NCTC 8049/ATCC 7966; experiment: Disk diffusion; conditions: 10 mg/ml, 20 μl; repeat
[6] = test system: Citrobacter freundii NCTC 9750/ATCC 8090; experiment: Disk diffusion; conditions: 10 mg/ml, 20 μl; repeat
[7] = test system: Moraxella catarrhalis NCTC 3625; experiment: Disk diffusion; conditions: 10 mg/ml, 20 μl; repeat, strain NCTC 3625
[8] = test system: Proteus mirabilis NCTC 10975; experiment: Disk diffusion; conditions: 10 mg/ml, 20 μl; repeat; value printed with '?'
[9] = test system: Salmonella enterica subsp. enterica serovar Typhimurium ATCC 13311; experiment: Disk diffusion; conditions: 10 mg/ml, 20 μl; repeat
[10] = test system: Yersinia enterocolitica clinical 26609; experiment: Disk diffusion; conditions: 10 mg/ml, 20 μl; repeat, strain clinical 26609
[11] = test system: Staphylococcus aureus NCTC 6571/ATCC 9144; experiment: Disk diffusion; conditions: for zone of inhibition at 10000 µg/mL: Staphylococcus aureus
[12] = test system: Streptococcus pyogenes NCTC 8191; experiment: Disk diffusion; conditions: 10 mg/ml, 20 μl

Compound: O=C(O)c1ccc(/C=C/c2cc(/C=C/c3ccc(C(=O)O)cc3)cc(/C=C/c3ccc(C(=O)O)cc3)c2)cc1 [TSB007]
- minimum period for which master stocks retained full antimicrobial activity [1]: ≥ 6 weeks
- Zone diameters, 24 h TSB007 ([2]; 24 h): 25 trim
- Zone diameters, 48 h TSB007 ([2]; 48 h): 25 trim
- MIC ([3]; 35° C., 24 h): 2 to 4 µg/mL (≈ 3.87 to 7.74 µM)
- MBC [3]: > 32 µg/mL
- MBC (E. coli NCTC 10418): > 1020 µg/mL
- MIC (E. coli NCTC 10418): 512 µg/mL (≈ 991 µM)
- MBC (S. aureus NCTC 6571): 128 to 256 µg/mL (≈ 248 to 496 µM)
- MIC (S. aureus NCTC 6571): 2 µg/mL (≈ 3.87 µM)
- MIC [4]: 4 µg/mL (≈ 7.74 µM)
- Zone diameters, Repeat Results [5]: 8 trim
- Zone diameters, Repeat Results [6]: 9 trim
- Zone diameters, Repeat Results [7]: 36 trim
- Zone diameters, Repeat Results [8]: 9? trim
- Zone diameters, Repeat Results [9]: 11 trim
- Zone diameters, Repeat Results [10]: 8 trim
- Zone diameters, 24 h TSB007 ([11]; 10 mg/ml, 20 μl, 24 h): 20 trim
- Zone diameters, 48 h TSB007 ([11]; 10 mg/ml, 20 μl, 48 h): 9 trim
- Zone diameters, 48 h O2 ([11]; 10 mg/ml, 20 μl, 48 h, incubated aerobically): No zone
- Zone diameters, Repeat Results ([11]; 10 mg/ml, 20 μl, repeat): 21 trim
- zone of inhibition at 10000 µg/mL ([11]; ATCC9144|NCTC6571, 24 h, read-out: Zone diameters, 24 h AnO2): 18 mm
- zone of inhibition at 10000 µg/mL ([11]; ATCC9144|NCTC6571, 24 h, read-out: Zone diameters, 24 h O2): 14 mm
- zone of inhibition at 10000 µg/mL ([11]; ATCC9144|NCTC6571, 48 h, read-out: Zone diameters, 48 h AnO2): 18 mm
- Zone diameters, 24 h TSB007 ([12]; 24 h, Mueller Hinton + Blood & Incubated in 5% CO2): 14 trim
- Zone diameters, 48 h TSB007 ([12]; 48 h, Mueller Hinton + Blood & Incubated in 5% CO2): 14 trim
- Zone diameters, Repeat Results ([12]; repeat): 17 trim
